Results on 1 compound are retold here after PMC8994274, “A proteolysis-targeting chimera molecule selectively degrades ENL and inhibits malignant gene expression and tumor growth” (Journal of Hematology & Oncology, 2022).

Series [1] has as its system blood and solid tumor cells. Put plainly: Antiproliferation assay, ranges given over several cell lines. Format: cell-based. The following applies: AML Kasumi-1, myeloma RPMI-8226 and U266; read-out: EC50 against Kasumi-1, RPMI-8226 and U266 cells (range over cell lines).
Protocol: (§1) Proliferation inhibition assays for suspension blood cancer cells were performed using an XTT assay kit (Biotium), following our previous methods [22]. EC50 values were determined using Prism 5 and from at least three independent experiments.
Series [2] has as its system AF9, AFF4, cyclin-T1, DOT1L. The experiment in a line: Other SEC-related proteins in nucleus of MV4;11 cells (Western blot). Format: cell-based. Particulars: 4 days. The source says: We further investigated how compound 1 affects ENL, AF9 and other proteins of SEC in the cytoplasmic and nuclear compartments, the latter of which are more relevant to the functions of these transcription cofactors. […] Upon treatment of MV4;11 cells with these compounds for 4 days, cytoplasmic and nuclear proteins were separated and subjected to SDS-PAGE/Western blot. […] In addition, nuclear levels of H3K79 methylation, the product of DOT1L catalyzed reactions, were not consistently affected by compound 1.
3 × 10^6 cells/well were treated with increasing concentrations of a compound for 1 day, and whole proteins were extracted. Equal amounts of proteins were separated on SDS-PAGE and transferred to PVDF membranes. The blots were probed with primary antibodies, followed by anti-rabbit IgG (Thermo Scientific) secondary antibodies. The primary antibodies against ENL (Cell signaling #14893), AF9 (Novusbio #NB100-1565), DOT1L (Cell signaling #77087), AFF4 (Abcam #ab103586), Cyclin T1 (Cell signaling #81464), H3K79me2 (Cell signaling #5427), H3K79me1 (Cell signaling #9398), Histone H3 (Cell signaling #4499), FLAG (Sigma-Aldrich #F1804), β-Actin (Cell signaling #4970) were used in this study.
On the technique in general: In western blotting, separated proteins are transferred to a membrane and probed.

Series [3] is described as follows: In vivo toxicity in C57BL/6 mice. The following applies: 30 mg/kg/day for 13 days. Here is the method:
In vivo antitumor activity of compound 1 was evaluated in a commonly used mouse model of Molm-13 leukemia. First, in vivo toxicity was assessed in C57BL/6 mice. […] Next, 10^6 Molm-13 cells were injected subcutaneously into NOD-SCID mice, which developed palpable tumors in ~ 1 week and grew rapidly.

Series [4] has as its target T1, ENL (Homo sapiens, UniProt Q03111).
T1 sequence (Q03111 1-559): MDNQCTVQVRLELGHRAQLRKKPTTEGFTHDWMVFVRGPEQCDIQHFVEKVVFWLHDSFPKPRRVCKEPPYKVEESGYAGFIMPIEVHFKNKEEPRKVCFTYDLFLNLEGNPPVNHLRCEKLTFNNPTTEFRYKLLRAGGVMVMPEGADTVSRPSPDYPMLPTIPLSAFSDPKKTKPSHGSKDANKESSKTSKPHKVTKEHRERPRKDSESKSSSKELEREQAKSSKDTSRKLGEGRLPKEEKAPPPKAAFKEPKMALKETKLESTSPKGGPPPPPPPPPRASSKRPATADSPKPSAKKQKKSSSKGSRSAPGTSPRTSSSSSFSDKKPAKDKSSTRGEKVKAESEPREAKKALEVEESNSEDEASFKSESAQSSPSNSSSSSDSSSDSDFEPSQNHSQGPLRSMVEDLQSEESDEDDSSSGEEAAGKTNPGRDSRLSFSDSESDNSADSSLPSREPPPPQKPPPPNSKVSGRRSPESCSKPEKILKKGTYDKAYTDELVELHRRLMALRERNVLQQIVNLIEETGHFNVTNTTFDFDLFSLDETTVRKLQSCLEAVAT
The experiment in a line: ENL degradation in MV4;11 cells (Western blot). More on the design: endogenous in cells; host or cells: MV4;11. Format: cell-based. The following applies: 500 nM.

Series [5] concerns Hela cells. The experiment in a line: Antiproliferation assay, Hela. Particulars: Homo sapiens, 168 h, read-out: Antiproliferative activity, EC50, Hela.
The subject of series [6] is Kasumi-1 cells. Put plainly: Antiproliferation assay (XTT), Kasumi-1. Particulars: Homo sapiens, Kasumi 1, 168 h, read-out: Antiproliferative activity, EC50, Kasumi-1. In general terms: Tetrazolium dyes change colour on reduction, which living cells bring about.
Protocol: as §1
Series [7] has as its system MV4;11 cells. Put plainly: Antiproliferation assay (XTT), MV4;11. The following applies: Homo sapiens, MV4-11, 168 h, read-out: EC50 against proliferation of MV4;11 cells.
Protocol: as §1

The structures appear in SMILES notation. Entries after “also recorded” stand apart in the source; their conditions may differ.

Take `C[C@H]1CCCN1Cc1nc2cc(NC(=O)c3ccc4c(cnn4CCCCCCCCNc4cccc5c4C(=O)N(C4CCC(=O)NC4=O)C5=O)c3)ccc2[nH]1` (stereo partly shown) [Compound 1]: the EC50 in series [1] was 1100 to 4100 nM; in series [5], > 50000 nM; in series [6] it was 1100 ± 30 nM; in series [7], 570 nM. In addition, the “Levels of AF9, AFF4, cyclin-T1 and DOT1L” value in series [2] is given as “not significantly decreased”. Besides, the Body weight result in series [3] is recorded as “did not cause significant weight losses”. In series [3], the “Hematopoiesis and overt toxicities” value is given as “did not inhibit normal hematopoiesis or cause other overt toxicities”. The “Blood cell counts versus control” value in series [3] (blood test on day-14, 30 mg/kg/day) is given as “no significant changes; also recorded: no significant differences”. Also, the “Time at which significant ENL degradation can be detected” value in series [4] is reported as 2 h. In addition, the “Time to ENL depletion” value in series [4] is recorded as ≤ 24 h.
